{"source": "patent US20060094676A1", "about": "“Compositions and methods for treating cancer using compositions comprising an inhibitor of endothelin receptor activity” (priority 2004, published 2006)", "key": {"[1]": {"system": "Me 190/DA (Cut-met) melanoma cells", "assay": "MTS assay of cell viability after BQ788", "format": "cell-based, human", "conditions": "incubation with BQ788 for seven days", "experimental": "(§1) Cells were cultured on a matrigel matrix that was histologically examined after two weeks (A-F). While the primary melanoma cells remained on top of the gel only (A and B), a fraction of the Cut-met cells invaded the gel (C and D) and the LN-met cells invaded the matrix extensively (E and F). Cell lysates of the three lines were subjected to western blot analysis using an anti-ETRB Ab (G) and an anti-tubulin Ab (H). Untreated, control (vehicle treated), and BQ788 treated cells were subjected to MTS assay to quantify any reduction in cell number. The mean values were calculated and plotted (I) as the percentage of the vehicle treated value+/− SEM.\n(§2) Human melanoma cell lines Me191-1/GG (Primary), Me 190/DA (Cut-met), Me 275/EP (LN-met) were obtained from the Ludwig Institute (Epalinges, Switzerland) and SK-MEL-28 was obtained from the American Tissue Culture Collection (ATCC). […] After removal of the inserts, MTS solution was added to the well to quantify the cells that migrated through the insert and were attached to the bottom of the well by measuring the OD at 492 nm (Promega). […]\n(§3) To address the relationship between the level of progression of human melanoma and responsiveness to BQ788 treatment, 3 cell lines that had been grown in culture for a restricted number of passages were used. […] This effect was quantified using the MTS assay."}, "[2]": {"system": "Me 275/EP (LN-met) melanoma cells", "assay": "MTS assay of cell viability after BQ788", "format": "cell-based, human", "conditions": "incubation with BQ788 for seven days; LN-met line", "experimental": "as §1, §2, §3"}, "[3]": {"system": "tumors derived from a human melanoma cell line grown in nude mice", "assay": "Anti-CD31 immunohistochemistry of tumor sections (angiogenesis)", "format": "in vivo", "conditions": "tumors injected with BQ788 vs vehicle", "experimental": "Equal amounts of RNA from cells that were treated with BQ788 for 3 days were subjected to real-time RT-PCR analysis for the detection VEGF (A), HIF-1α (B) and Gravin (C) transcripts. Differences in expression levels are shown as x fold change and are statistically significant (p<0.05) unless a column in marked as non significant (N.S.). Sections of two representative tumors derived from a human melanoma cell line grown in nude mice and injected either with vehicle (D) or BQ788 (E) were stained with anti CD-31 to highlight blood vessels (brown staining, Lahav et al, 1999).\nThe relationship between the expression patterns of VEGF and GRAVIN is consistent with that observed in astrocytes, where GRAVIN down-regulates VEGF expression (Lee, et al., SSeCKS regulates angiogenesis and tight junction formation in blood-brain barrier, Nat. Med., 9:900-906 (2003)). In the present study we observed, at least for the most sensitive cell lines, LN-met and SK-MEL-28, that down-regulation of GRAVIN correlates with induction of VEGF. We therefore analyzed tissue sections of tumors derived from a human melanoma cell line grown in nude mice and injected with BQ788 for signs of changes in angiogenesis (Lahav, et al., An endothelin receptor B antagonist inhibits growth and induces cell death in human melanoma cells in vitro and in vivo, Proc. Natl. Acad. Sci. U.S.A., 96:11496-11500 (1999))."}}}
{"molecule": "CCCC[C@@H](NC(=O)[C@@H](Cc1cn(C(=O)OC)c2ccccc12)NC(=O)[C@H](CC(C)(C)C)NC(=O)N1[C@H](C)CCC[C@@H]1C)C(=O)O", "note": "[BQ788, N-cis-2,6-dimethylpiperidinocarbonyl-L-γ-methylleucyl-D-1-methoxycarbonyltrptophanyl-D-norleucine]", "values": [{"measurement": "reduction of viability", "setting": "[1]", "value": 45, "unit": "%"}, {"measurement": "reduction of viability", "setting": "[2]", "value": 96, "unit": "%"}, {"measurement": "angiogenesis in tumors (anti-CD31 staining)", "setting": "[3]", "value": "clear increase in angiogenesis"}]}
